From US4053478A, “2,5-Di-substituted 4-oxazolealkanoic acids and esters” (Yoshitomi Pharmaceutical Industries, Ltd., priority 1974, dated 1977) come the findings set out here.

For orientation: LD50 means the dose expected to kill half of the subjects tested.

Series [1] relates to bleeding time induced by platelet thrombi. The experiment in a line: Anti-thrombotic action: bleeding time induced by platelet thrombi, tail vein puncture (Table 4). The series is classed as in vivo. Conditions: oral, one hour after administration, male mice. The protocol: The bleeding time induced by platelet thrombi was compared with that of the control group, and the rate of prolongation was calculated as an index of anti-thrombotic activity.

Series [2] can be described thus: Acute toxicity, rat (Table 5). Conditions: in vivo, oral, lethality within two days, read-out: LD50 per os, Rat. The protocol: (§1) The test compound was orally administered to groups each of 5 male mice and rats respectively. The LD50 was calculated from the lethal rate (50%) within two days after administration of the test compound.
Series [3] can be described thus: Acute toxicity, mouse (Table 5). Conditions: in vivo, oral, lethality within two days, read-out: LD50 per os, Mouse. As to the method: as §1
The test system of series [4] is serum cholesterol level. Nature of the series: Hypolipidemic action: dietary hyperlipidemia in male mice (Table 2). It is filed as in vivo, dd-strain male mice. Conditions: 5 days. The protocol: ii. Dietary hyperlipidemia in male mice (Table 2)
dd-Strain male mice weighing 20-25 g. were used. Each group was composed of 8 mice. Animals were fed with NMF food (Oriental Yeast Co., Tokyo) containing 1% of cholesterol, 0.2% of cholic acid and 5% of olive oil, and the serum cholesterol level was measured by the use of an autoanalyzer after 5 days administration of the test compound. The levels in the test group was compared with that in the control group given the same diet.

In series [5] the test system is serum cholesterol and triglyceride levels. Nature of the series: Hypolipidemic action: male rats with normal serum lipid (Table 1). The series is classed as in vivo, Wistar strain male rats. To be noted: 100 mg/kg/day, oral (gastric tube), 5 days, vs control. As to the method:
i. Male rats with normal serum lipid (Table 1)
Each test group was composed of more than 5 rats. The test compound was orally given by a gastric tube. Serum cholesterol and triglyceride levels were measured by the standard methods using an autoanalyzer (Technicon Inc.). The levels in the control (placebo) group were considered as 100% and the reduction (%) in the test group was calculated.

The test system of series [6] is serum cholesterol level. The experiment in a line: Hypolipidemic action: Triton hyperlipidemia in male mice (Table 3). The series is classed as in vivo, dd-strain male mice. Conditions: intraperitoneal, 18 hours after Triton. The protocol: iii. Triton hyperlipidemia in male mice (Table 3) Each group was composed of eight dd-strain male mice weighing 20-25 g. Immediately after intraperitoneal administration of the test compound to the animals, Triton WR-1339 was intraveniously given. Eighteen hours after Triton administration, the serum cholesterol level was measured and compared with that of the control group treated in the same way.

A value given as a limit tells only on which side of the number the result lay.

With `CC(=O)Oc1ccccc1C(=O)O` [Acetylsalicylic Acid, reference compound], the “Prolongation Rate (%) of the Bleeding Time” value (“Prolongation Rate (%)” for short) in series [1] (12.5 mg/kg/day) is 22%; in series [1] (25 mg/kg/day), 65%; in series [1] (50 mg/kg/day), 268%.
In the case of `CCOc1oc(-c2ccc(Cl)cc2)nc1CC(=O)OCc1cccnc1` [B, 3-pyridylmethyl 2-p-chlorophenyl-5-ethoxy-4-oxazoleacetate], the LD50 at 48 h in series [2] and in series [3] was more than 4000 mg/kg each time. Moreover, the entries for the “Lowering Rate (%) of Serum Cholesterol Level” value (in the series with serum cholesterol level [4] (100 mg/kg/day); in series [5]) were 43% and 22%, respectively. Moreover, in series [5], the “Lowering Rate (%) of Serum Triglyceride Level” value is reported as 41%.
For `CCOC(=O)Cc1nc(-c2ccc(Cl)c(Cl)c2)oc1OCC` [C, ethyl 2-(3,4-dichlorophenyl)-5-ethoxy-4-oxazoleacetate], the “Lowering Rate (%) of Serum Cholesterol Level” value is 18% in the series with serum cholesterol level [6] (25 mg/kg/day) and 35% in the series on serum cholesterol level [6] (100 mg/kg/day). Besides, the values for the LD50 at 48 h in series [2] and in series [3] were more than 4000 mg/kg and 2000 mg/kg, respectively.
Consider `CCOC(=O)C(C)(C)Oc1ccc(Cl)cc1` [Clofibrate, reference compound], for which the “Lowering Rate (%) of Serum Cholesterol Level” value with serum cholesterol level [6] (100 mg/kg/day) is reported as 10%; in the series on serum cholesterol level [4] (50 mg/kg/day), 0%; with serum cholesterol level [4] (100 mg/kg/day) it was 16%; in series [5], 31%. Moreover, the results for the LD50 at 48 h in series [2] and in series [3] were 2300 mg/kg and 1500 mg/kg, respectively. In addition, the “Prolongation Rate (%)” value in series [1] (100 mg/kg/day) is listed as 38%. Further, the “Lowering Rate (%) of Serum Triglyceride Level” value in series [5] is 35%.
For the compound `CCOC(=O)Cc1nc(-c2ccc(Cl)cc2)oc1OCC` [Compound A, ethyl 2-p-chlorophenyl-5-ethoxy-4-oxazoleacetate], the “Lowering Rate (%) of Serum Cholesterol Level” value was 26% with serum cholesterol level [6] (50 mg/kg/day); 32% in the series on serum cholesterol level [6] (100 mg/kg/day); 21% with serum cholesterol level [4] (50 mg/kg/day); 41% in the series with serum cholesterol level [4] (100 mg/kg/day); 25% in series [5]. The LD50 at 48 h in series [2] is more than 4000 mg/kg; in series [3], 4000 mg/kg. Also, the “Lowering Rate (%) of Serum Triglyceride Level” value in series [5] stood at 45%.
Take `CCOc1oc(-c2ccncc2)nc1CCC(=O)O` [D, 3-[2-(4-pyridyl)-5-ethoxy-4-oxazole]propionic acid]: the LD50 at 48 h in series [2] and in series [3] was more than 2000 mg/kg throughout. Also, the “Prolongation Rate (%)” value came out at 107% in series [1] (12.5 mg/kg/day), 209% in series [1] (25 mg/kg/day), 321% in series [1] (50 mg/kg/day) and 439% in series [1] (100 mg/kg/day).
